# Laboratory results published in patent publication US20220403327A1, “CUSTOMIZABLE 3D CELL CULTURE SYSTEM COMPRISING HYDROGEL-EMBEDDED CELLS AND USES THEREOF” (POLYVALOR, LIMITED PARTNERSHIP, priority 2019, published 2022).
# Key:
# Format in all cases: cell-based
# breast cancer cells = assay: Drug screening test: tumor migration on plasma-treated PLA electrospun mat 3D cell culture model; conditions: 0, 0.05, 0.1, 0.5, 1 and 2 μM in media; day 7 of cell culture; A1G7 hydrogel on fibroblast-seeded PLA mats; triplicate
# Protocol: FIG. 11B is a graph showing the measurement of the number of tumor cells migrated to the surface of PLA mats at different concentrations (0, 0.05, 0.1, 0.5, 1 or 2 μM) of Doxorubicin. Experiments were performed in triplicate and the error bars in the graph show the standard deviation.
# (§1) A drug screening setup was designed using the known anti-tumor drug Doxorubicin to assess tumor migration performance on the 3D cell culture model of the present disclosure. The plasma-treated PLA electrospun mats seeded with fibroblasts and tumor cells on A1G7 hydrogel on top, were loaded with various concentrations of Doxorubicin (0, 0.05, 0.1, 0.5, 1 and 2 μM) in triplicate, and tumor migration assessment was performed at day 7 of cell culture. […] The experiment was done in triplicate and the error bars presented in the chart are based on standard deviation.
# fibroblasts = assay: Drug screening test: stromal cells on nanofibrous PLA scaffolds of the 3D cell culture model; conditions: 0-2 μM; day 7; relative to samples from previous experiment without drug
# Protocol: as §1, with “A1G7” left out
# [1] = system: bone metastases prostate (BMP4) patient-derived tumor cells; assay: Drug screening test: tumor migration on PP-EL plasma-coated PLA electrospun mats with patient-derived tumor cells; conditions: 0, 0.05, 0.1 and 0.5 μM, day 7 of cell culture, A1G7 hydrogel, triplicate
# Protocol: FIG. 12C is a graph showing the measurement of the number of BMP4 tumor cells migrated to the surface of PP-EL plasma-treated PLA mats at different concentrations (0, 0.05, 0.1, or 0.5 μM) of Doxorubicin. Experiments were performed in triplicate and the error bars in the graph show the standard deviation.
# The 3D cell culture system according to the present disclosure was also used to perform a doxorubicin screening tested with tumor cells derived from patients (bone metastases prostate (BMP4) patient-derived tumor cells) and a breast tumor cell line (MBA-MB231) in A1G7 hydrogel. In this experiment, the PLA scaffolds were coated with PP-EL, ethyl lactate (EL) plasma coating in atmospheric pressure, and captured at day 7 after culture. The results depicted in FIG. 12A indicate a significant difference in the appearance of primary BMP4 tumor cells and commercial tumor cell line in the images. The pictures show the 3D stack of the total mat layers (certain thickness) obtained by signal from cells.
# The PP-EL plasma-coated PLA electrospun mats seeded with BMP4 tumor cells on A1G7 hydrogel on top, were loaded with various concentrations of Doxorubicin (0, 0.05, 0.1 and 0.5 μM) in triplicate, and tumor migration assessment was performed at day 7 of cell culture.
smiles,measurement,setting,value
COc1cccc2c1C(=O)c1c(O)c3c(c(O)c1C2=O)C[C@@](O)(C(=O)CO)C[C@@H]3O[C@H]1C[C@H](N)[C@H](O)[C@H](C)O1 [Doxorubicin],number of breast cancer cells that were able to migrate to the surface of scaffolds,breast cancer cells,significant reduction
same,number of stromal cells (fibroblasts) on nanofibrous scaffolds,fibroblasts,reduced number of stromal cells
same,BMP4 tumor cells migration,[1],dose-dependent inhibition
